Assay results as given in article PMC6407579, “New flavonoid – N,N-dibenzyl(N-methyl)amine hybrids: Multi-target-directed agents for Alzheimer´s disease endowed with neurogenic properties” (Journal of Enzyme Inhibition and Medicinal Chemistry, 2019).
Values joined by “and” are separate entries in the source; they are usually repeats but may differ in a detail not shown here. Equal entries are not always repeated.

How the values were obtained:
[1] = tested on: Aβ levels in cerebrospinal fluid; set-up: method as in PMID 29719179; details: cited from earlier work
[2] = target: T1, recombinant hMAO-A (Homo sapiens, UniProt P21397); test: biochemical; format: biochemical
T1 sequence (P21397 1-527): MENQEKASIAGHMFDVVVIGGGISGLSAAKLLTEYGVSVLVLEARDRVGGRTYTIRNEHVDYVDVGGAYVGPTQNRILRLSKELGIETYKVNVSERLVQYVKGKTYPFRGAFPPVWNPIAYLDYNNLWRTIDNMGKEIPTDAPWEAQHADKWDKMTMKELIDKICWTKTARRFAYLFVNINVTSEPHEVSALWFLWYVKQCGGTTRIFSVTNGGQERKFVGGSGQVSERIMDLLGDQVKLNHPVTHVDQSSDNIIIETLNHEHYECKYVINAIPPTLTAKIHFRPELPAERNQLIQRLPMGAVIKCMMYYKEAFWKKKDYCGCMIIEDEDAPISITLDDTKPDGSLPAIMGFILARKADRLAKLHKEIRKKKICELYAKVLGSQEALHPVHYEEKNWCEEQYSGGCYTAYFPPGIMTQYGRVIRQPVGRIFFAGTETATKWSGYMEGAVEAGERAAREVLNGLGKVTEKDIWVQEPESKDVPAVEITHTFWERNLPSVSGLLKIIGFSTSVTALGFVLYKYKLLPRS

[3] = In vitro blood-brain barrier permeation assay (PAMPA-BBB); format: in vitro ADME; details: pig, pH 7.4, porcine brain lipid, PBS:ethanol (70:30), 25 °C, read-out: PAMPA-BBB permeability in the CNS (Pe)
Method: Prediction of the brain penetration was evaluated using a parallel artificial membrane permeation assay (PAMPA-BBB), in a similar manner as previously described[36]^,[46]^,[51–53]. Pipetting was performed with a semi-automatic pipettor (CyBi®-SELMA) and UV reading with a microplate spectrophotometer (Multiskan Spectrum, Thermo Electron Co.). Commercial drugs, phosphate buffered saline solution at pH 7.4 (PBS), and dodecane were purchased from Sigma, Aldrich, Acros, and Fluka. Millex filter units (PVDF membrane, diameter 25 mm, pore size 0.45 μm) were acquired from Millipore. The porcine brain lipid (PBL) was obtained from Avanti Polar Lipids. The donor microplate was a 96-well filter plate (PVDF membrane, pore size 0.45 μm) and the acceptor microplate was an indented 96-well plate, both from Millipore. The acceptor 96-well microplate was filled with 200 μL of PBS: ethanol (70:30) and the filter surface of the donor microplate was impregnated with 5 μL of porcine brain lipid (PBL) in dodecane (20 mg mL^−1). Compounds were dissolved in PBS: ethanol (70:30) at 100 μg mL^−1, filtered through a Millex filter, and then added to the donor wells (200 μL). The donor filter plate was carefully put on the acceptor plate to form a sandwich, which was left undisturbed for 120 min at 25 °C. After incubation, the donor plate is carefully removed and the concentration of compounds in the acceptor wells was determined by UV-Vis spectroscopy. Every sample is analysed at five wavelengths, in four wells and at least in three independent runs, and the results are given as the mean ± standard deviation. In each experiment, 11 quality control standards of known BBB permeability were included to validate and normalise the analysis set.
To check if new compounds could be able to reach their CNS-targets, we used the in vitro parallel artificial membrane permeability assay for the blood-brain barrier (PAMPA-BBB) described by Di et al.[87], and partially modified by us for testing molecules with limited water-solubility[36]^,[46]^,[51–53]. The passive CNS-permeation of new compounds 1–13 through a lipid extract of porcine brain was measured at room temperature. In each experiment, 11 commercial drugs of known brain permeability were also tested and their permeability values normalised to the reported PAMPA-BBB data. […].

[4] = target: T2, σ2R (Rattus norvegicus, UniProt Q5U3Y7); test: Sigma-2 receptor binding, [3H]-DTG competition
T2 construct: 150 µg of rat liver homogenate were incubated; from tissue; host or cells: rat liver homogenate
T2 sequence (Q5U3Y7 1-176): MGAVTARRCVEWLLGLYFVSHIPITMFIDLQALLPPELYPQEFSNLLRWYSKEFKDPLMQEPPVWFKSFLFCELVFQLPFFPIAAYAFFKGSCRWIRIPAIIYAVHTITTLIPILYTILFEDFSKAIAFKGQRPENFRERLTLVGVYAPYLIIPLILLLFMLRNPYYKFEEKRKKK

[5] = target: T3, recombinant hMAO-B (Homo sapiens, UniProt P27338); test: biochemical; format: biochemical; details: mean ± SEM (n = 3); 100 µM highest concentration tested
T3 sequence (P27338 1-520): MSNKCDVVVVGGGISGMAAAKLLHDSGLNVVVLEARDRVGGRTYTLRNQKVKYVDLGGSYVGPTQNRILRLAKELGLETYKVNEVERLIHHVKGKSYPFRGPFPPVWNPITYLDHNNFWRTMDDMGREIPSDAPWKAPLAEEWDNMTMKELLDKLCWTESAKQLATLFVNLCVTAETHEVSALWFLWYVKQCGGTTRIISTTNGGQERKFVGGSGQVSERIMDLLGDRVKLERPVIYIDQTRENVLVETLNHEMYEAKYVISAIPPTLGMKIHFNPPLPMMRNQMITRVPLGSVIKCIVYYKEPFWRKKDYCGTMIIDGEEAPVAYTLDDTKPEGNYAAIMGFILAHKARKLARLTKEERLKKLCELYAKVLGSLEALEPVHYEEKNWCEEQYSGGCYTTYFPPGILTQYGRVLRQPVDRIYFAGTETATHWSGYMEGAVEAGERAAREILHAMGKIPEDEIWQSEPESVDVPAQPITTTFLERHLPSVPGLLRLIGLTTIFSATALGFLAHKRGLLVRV

[6] = target: T4, human recombinant AChE (hAChE) (Homo sapiens, UniProt P22303); test: biochemical; details: mean ± SEM (n = 3); read-out: hAChE IC50
T4 construct: purchased Sigma Chemical Co
T4 sequence (P22303 32-614): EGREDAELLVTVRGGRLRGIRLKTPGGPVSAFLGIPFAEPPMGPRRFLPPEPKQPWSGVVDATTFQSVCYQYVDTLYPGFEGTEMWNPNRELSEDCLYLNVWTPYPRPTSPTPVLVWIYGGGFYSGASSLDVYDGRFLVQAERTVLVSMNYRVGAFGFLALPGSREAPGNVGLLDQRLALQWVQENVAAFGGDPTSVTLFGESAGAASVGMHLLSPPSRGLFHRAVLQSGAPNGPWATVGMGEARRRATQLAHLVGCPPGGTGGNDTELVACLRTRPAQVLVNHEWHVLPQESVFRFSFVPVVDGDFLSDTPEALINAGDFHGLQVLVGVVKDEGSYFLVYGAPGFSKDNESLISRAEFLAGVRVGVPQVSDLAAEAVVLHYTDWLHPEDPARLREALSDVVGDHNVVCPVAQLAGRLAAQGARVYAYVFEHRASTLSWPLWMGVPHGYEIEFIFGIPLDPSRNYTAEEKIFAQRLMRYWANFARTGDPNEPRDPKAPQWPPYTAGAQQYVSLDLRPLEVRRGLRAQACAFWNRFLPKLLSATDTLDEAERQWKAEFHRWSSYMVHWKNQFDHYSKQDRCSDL
Method: The Ellman method was followed, using human recombinant AChE and BuChE from human serum. The assay solution consisted of 0.1 M phosphate buffer pH 8.0, 400 μM 5,5´-dithiobis(2-nitrobenzoic acid) (DTNB, Ellman’s reagent), 0.05 U/mL hAChE (Sigma Chemical Co.) or 0.024 U/mL hBuChE (Sigma Chemical Co.), and 800 μM acetylthiocholine iodide, or 500 μM butyrylthiocholine as the substrate of the enzymatic reaction, respectively. The compounds tested were added to the assay solution and preincubated with the enzyme for 5 min at 30 °C. After that period, the substrate was added.

[7] = target: T5, σ1R (Cavia porcellus, UniProt Q60492); test: Sigma-1 receptor binding, [3H]-(+)-pentazocine competition; set-up: species or system guinea pig
T5 construct: the thawed membrane preparation of guinea pig brain cortex; from tissue; host or cells: guinea pig brain cortex membranes
T5 sequence (Q60492 whole entry): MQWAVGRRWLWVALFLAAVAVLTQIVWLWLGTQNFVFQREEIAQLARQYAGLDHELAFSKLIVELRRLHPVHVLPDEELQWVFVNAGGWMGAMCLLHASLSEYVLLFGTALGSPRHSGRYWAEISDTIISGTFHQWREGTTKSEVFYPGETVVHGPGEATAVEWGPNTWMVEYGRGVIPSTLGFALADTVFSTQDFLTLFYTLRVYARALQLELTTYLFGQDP

[8] = Oxygen radical absorbance capacity assay (ORAC); details: trolox taken as 1.0

| Structure (SMILES) | reduction of Aβ levels in cerebrospinal fluid [1] | preference for hMAO-A compared to hMAO-B [2] | IC50 ([2]; mean ± SEM (n = 3), 100 µM highest concentration tested) | Papp at 120 min, 100 μg mL^−1 [3] | Ki [4] | IC50 [5] | IC50 [6] | Ki [7] | Selectivity vs. σ1R (Kiσ2R/Kiσ1R) [7] | ORAC, trolox equivalents [8] |
| --- | --- | --- | --- | --- | --- | --- | --- | --- | --- | --- |
| CN1C(=N)N[C@](C)(c2cc(NC(=O)c3ccc(F)cn3)ccc2F)CS1(=O)=O [verubecestat] | up to 81% | – | – | – | – | – | – | – | – | – |
| CN(Cc1ccccc1)Cc1ccc(NC(=O)c2cc(=O)c3c(O)cc(O)cc3o2)cc1 [Compound 4, N-(4-((Benzyl(methyl)amino)methyl)phenyl)-5,7-dihydroxy-4-oxo-4H-chromene-2-carboxamide] | – | at least 4.4 times | 22800 ± 1500 nM | 14.7 ± 1.2 ×10⁻⁶ cm/s | > 3000 nM | > 100000 nM | 1900 ± 600 nM | 510 ± 70 nM | > 5.9 | 1.2 mmol of trolox/mmol of tested compound and 1.2 ± 0.1 mmol of trolox/mmol of tested compound |
